Calls of active or inactive are those of the source. The calls are words filed in the database; no cut-off is given here.
Assays:
[1] = target: Neuronal acetylcholine receptor subunit alpha-7 (Homo sapiens, UniProt P36544); test: Binding affinity to alpha7 nAChR (unknown origin) assessed as dissociation constant
[2] = target: Neuronal acetylcholine receptor; alpha4/beta2 (Homo sapiens, UniProt P17787+P43681); test: Binding affinity to alpha4beta2 nAChR (unknown origin) assessed as dissociation constant; assay type: protein-complex assay
[3] = target: Neuronal acetylcholine receptor; alpha3/beta4 (Homo sapiens, UniProt P30926+P32297); test: Binding affinity to alpha3beta4 nAChR (unknown origin) assessed as dissociation constant; assay type: protein-complex assay
Cavia porcellus [4] = test: Anti-tussive activity in guniea pig cough model assessed as reduction in cumulative number of coughs at 30 mg/kg, ip; assay type: functional, organism-based
Cavia porcellus [5] = test: Anti-tussive activity in guniea pig cough model assessed as suppression of cough frequency at 3 to 30 mg/kg, ip; assay type: functional, organism-based; conditions: dose 3-30 mg/kg
Cavia porcellus [6] = test: Anti-tussive activity in guniea pig cough model assessed as reduction in cumulative number of coughs at 3 to 30 mg/kg, ip; assay type: functional, organism-based; conditions: dose 3-30 mg/kg
Cavia porcellus [7] = test: Anti-tussive activity in citric acid-induced guniea pig cough model assessed as reduction in cough count at 30 mg/kg, ip; assay type: functional, organism-based
Cavia porcellus [8] = test: Anti-tussive activity in guniea pig cough model assessed as suppression of cough frequency at 1 to 9.5 mg/kg, ip; assay type: functional, organism-based; conditions: dose 1-9.5 mg/kg
Cavia porcellus [9] = test: Anti-tussive activity in guniea pig cough model assessed as reduction in cumulative number of coughs at 1 to 9.5 mg/kg, ip; assay type: functional, organism-based; conditions: dose 1-9.5 mg/kg
Cavia porcellus [10] = test: Anti-tussive activity in guniea pig cough model assessed as reduction in cumulative number of coughs at 0.4 mg/kg, INH; assay type: functional, organism-based
Cavia porcellus [11] = test: Anti-tussive activity in guniea pig cough model assessed as reduction in cumulative number of coughs at 1 to 2 mg/kg, IT; assay type: functional, organism-based; conditions: dose 1-2 mg/kg
Cavia porcellus [12] = test: Anti-tussive activity in guniea pig cough model assessed as reduction in cumulative number of coughs at 9.5 mg/kg, po; assay type: functional, organism-based
Cavia porcellus [13] = test: Anti-tussive activity in guniea pig cough model assessed as reduction in cough inhibition period at 1 to 9.5 mg/kg, ip; assay type: functional, organism-based; conditions: dose 1-9.5 mg/kg
Cavia porcellus [14] = test: Anti-tussive activity in guniea pig cough model assessed as reduction in cough inhibition period at 0.1 to 0.4 mg/kg, INH; assay type: functional, organism-based; conditions: dose 0.1-0.4 mg/kg
[15] = Half life in po dosed guinea pig; assay type: ADME, organism-based, Cavia porcellus; conditions: in vivo
[16] = Half life in ip dosed guinea pig; assay type: ADME, organism-based, Cavia porcellus; conditions: in vivo
[17] = Half life in INSULFFLATION dosed guinea pig; assay type: ADME, organism-based, Cavia porcellus; conditions: in vivo, inhaled or intranasal

Chain of Neuronal acetylcholine receptor; alpha3/beta4 (P30926 whole entry): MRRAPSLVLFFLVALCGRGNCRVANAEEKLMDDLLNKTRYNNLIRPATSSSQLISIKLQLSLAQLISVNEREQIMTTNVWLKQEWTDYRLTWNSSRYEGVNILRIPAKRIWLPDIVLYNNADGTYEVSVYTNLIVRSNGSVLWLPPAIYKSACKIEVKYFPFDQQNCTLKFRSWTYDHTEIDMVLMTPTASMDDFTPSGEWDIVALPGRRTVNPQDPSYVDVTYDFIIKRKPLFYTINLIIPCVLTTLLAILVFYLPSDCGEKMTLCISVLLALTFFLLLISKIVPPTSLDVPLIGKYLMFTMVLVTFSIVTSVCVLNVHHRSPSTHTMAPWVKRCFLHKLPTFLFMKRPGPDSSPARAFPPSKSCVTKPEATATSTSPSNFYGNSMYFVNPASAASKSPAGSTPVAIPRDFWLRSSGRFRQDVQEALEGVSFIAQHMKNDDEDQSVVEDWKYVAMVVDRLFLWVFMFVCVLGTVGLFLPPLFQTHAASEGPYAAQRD
Chain of Neuronal acetylcholine receptor; alpha3/beta4 (P32297 whole entry): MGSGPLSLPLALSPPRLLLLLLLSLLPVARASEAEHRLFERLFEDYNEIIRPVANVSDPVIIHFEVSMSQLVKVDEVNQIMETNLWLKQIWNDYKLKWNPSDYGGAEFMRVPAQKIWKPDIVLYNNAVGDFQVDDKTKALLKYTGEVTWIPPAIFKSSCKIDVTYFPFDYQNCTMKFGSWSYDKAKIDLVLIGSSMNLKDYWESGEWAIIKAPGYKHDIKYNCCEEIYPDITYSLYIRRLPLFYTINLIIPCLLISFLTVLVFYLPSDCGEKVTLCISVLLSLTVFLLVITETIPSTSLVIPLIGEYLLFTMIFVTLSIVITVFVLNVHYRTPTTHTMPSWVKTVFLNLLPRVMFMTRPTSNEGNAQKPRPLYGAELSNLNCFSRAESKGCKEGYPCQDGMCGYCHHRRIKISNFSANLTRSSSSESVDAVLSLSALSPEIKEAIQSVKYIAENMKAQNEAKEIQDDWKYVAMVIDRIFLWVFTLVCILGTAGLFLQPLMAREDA
Chain of Neuronal acetylcholine receptor subunit alpha-7 (P36544 whole entry): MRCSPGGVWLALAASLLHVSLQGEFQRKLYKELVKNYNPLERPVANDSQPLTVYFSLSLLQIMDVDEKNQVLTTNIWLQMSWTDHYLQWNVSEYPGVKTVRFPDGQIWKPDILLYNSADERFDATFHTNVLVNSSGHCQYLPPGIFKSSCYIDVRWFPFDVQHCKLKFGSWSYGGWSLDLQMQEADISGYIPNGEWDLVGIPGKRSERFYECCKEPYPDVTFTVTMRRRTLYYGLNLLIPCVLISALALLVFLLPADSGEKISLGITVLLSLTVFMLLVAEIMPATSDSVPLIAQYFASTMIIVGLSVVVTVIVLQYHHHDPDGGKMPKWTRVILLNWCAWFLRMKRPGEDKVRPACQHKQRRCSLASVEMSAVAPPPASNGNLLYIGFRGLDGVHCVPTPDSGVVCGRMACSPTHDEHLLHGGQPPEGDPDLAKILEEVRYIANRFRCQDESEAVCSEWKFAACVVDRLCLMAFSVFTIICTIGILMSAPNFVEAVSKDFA
Chain of Neuronal acetylcholine receptor; alpha4/beta2 (P17787 whole entry): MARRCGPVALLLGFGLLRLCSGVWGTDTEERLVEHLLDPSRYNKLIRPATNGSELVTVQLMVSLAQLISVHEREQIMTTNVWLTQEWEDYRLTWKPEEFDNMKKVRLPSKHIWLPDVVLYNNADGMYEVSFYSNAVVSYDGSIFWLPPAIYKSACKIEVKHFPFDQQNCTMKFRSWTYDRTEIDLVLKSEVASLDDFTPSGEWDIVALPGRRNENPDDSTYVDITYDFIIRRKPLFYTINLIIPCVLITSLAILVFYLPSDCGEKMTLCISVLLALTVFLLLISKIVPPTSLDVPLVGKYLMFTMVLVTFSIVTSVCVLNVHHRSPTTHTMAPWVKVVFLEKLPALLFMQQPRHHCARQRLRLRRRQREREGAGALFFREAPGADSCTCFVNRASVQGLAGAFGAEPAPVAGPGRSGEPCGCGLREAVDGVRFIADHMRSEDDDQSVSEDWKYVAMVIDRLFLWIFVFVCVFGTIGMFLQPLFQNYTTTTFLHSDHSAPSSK
Chain of Neuronal acetylcholine receptor; alpha4/beta2 (P43681 whole entry): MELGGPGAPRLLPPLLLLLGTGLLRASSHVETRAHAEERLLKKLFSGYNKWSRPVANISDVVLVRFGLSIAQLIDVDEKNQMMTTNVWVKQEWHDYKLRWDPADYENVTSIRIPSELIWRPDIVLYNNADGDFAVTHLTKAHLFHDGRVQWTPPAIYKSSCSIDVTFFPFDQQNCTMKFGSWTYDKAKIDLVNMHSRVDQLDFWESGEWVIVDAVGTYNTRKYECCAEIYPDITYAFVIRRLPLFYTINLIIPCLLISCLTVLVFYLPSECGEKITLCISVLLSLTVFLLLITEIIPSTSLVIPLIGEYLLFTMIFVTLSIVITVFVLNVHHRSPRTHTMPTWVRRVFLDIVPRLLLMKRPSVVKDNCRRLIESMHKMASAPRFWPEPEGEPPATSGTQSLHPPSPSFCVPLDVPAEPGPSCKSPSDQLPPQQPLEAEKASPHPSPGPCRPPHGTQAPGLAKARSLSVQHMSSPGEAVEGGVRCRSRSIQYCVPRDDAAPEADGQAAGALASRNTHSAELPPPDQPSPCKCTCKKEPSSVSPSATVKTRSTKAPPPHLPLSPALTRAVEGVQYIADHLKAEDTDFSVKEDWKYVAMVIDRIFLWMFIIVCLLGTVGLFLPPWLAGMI

SMILES | Ki [1] [nM] | Ki [2] [nM] | Ki [3] [nM] | also measured
c1cncc(C[C@@H]2[C@@H](Oc3cc4ccccc4cn3)C3CCN2CC3)c1 (relative stereo) | 1000 | 1870 | 2150 | –
COc1ccc2c3c1O[C@H]1[C@@H](O)C=C[C@H]4[C@@H](C2)N(C)CC[C@@]341 | – | – | – | Activity (Cavia porcellus [4]): Active
c1cncc(C[C@@H]2[C@@H](Oc3ccc(-c4ccc[nH]4)nn3)C3CCN2CC3)c1 (relative stereo) | 42 | 200 | 730 | Activity (Cavia porcellus [5]): Active; Activity (Cavia porcellus [6]): inactive
c1cncc(C[C@@H]2[C@@H](Oc3ccc4ccccc4n3)C3CCN2CC3)c1 (relative stereo) | – | 140 | 800 | –
c1cncc(C[C@@H]2[C@H](Oc3ccc(-c4ccc5[nH]ccc5c4)nn3)C3CCN2CC3)c1 (relative stereo) | – | 17.3 | 200 | –
c1cncc(C[C@H]2[C@H](Oc3cnc(-c4ccc5[nH]ccc5c4)cn3)C3CCN2CC3)c1 (relative stereo) | 240 | 230 | 400 | –
c1cncc(C[C@H]2[C@H](Oc3ccc(-c4ccc5[nH]ccc5c4)cn3)C3CCN2CC3)c1 | 58 | 470 | 780 | –
c1cncc(C[C@H]2[C@H](Oc3ccc(-c4ccc5[nH]ccc5c4)nn3)C3CCN2CC3)c1 (relative stereo) | 1.4 | 73 | 730 | Activity (Cavia porcellus [7]): Active
Nc1nc2ccc(-c3ccc(O[C@H]4C5CCN(CC5)[C@@H]4Cc4cccnc4)nn3)cc2s1 (relative stereo) | 18.8 | 50 | 1080 | –
c1cncc(C[C@@H]2[C@@H](Oc3nnc(-c4ccc5[nH]ccc5c4)s3)C3CCN2CC3)c1 (relative stereo) | – | 220 | 440 | Activity (Cavia porcellus [8]): Active; Activity (Cavia porcellus [9]): Active; Activity (Cavia porcellus [10]): Active; Activity (Cavia porcellus [11]): Active; Activity (Cavia porcellus [12]): inactive; Activity (Cavia porcellus [13]): Active; Activity (Cavia porcellus [14]): Active; half-life [15]: 90 min; half-life [16]: 102 min; half-life [17]: 192 min
c1ccc(-c2nnc(O[C@H]3C4CCN(CC4)[C@@H]3Cc3cccnc3)s2)cc1 (relative stereo) | – | 330 | 340 | –
c1ccc(-c2ccc(O[C@@H]3C4CCN(CC4)[C@H]3Cc3cccnc3)nn2)cc1 (relative stereo) | 100 | 120 | 80 | –

Source: ChEMBL document CHEMBL5236594, “Novel α7 nicotinic acetylcholine receptor modulators as potential antitussive agents” (Bioorg Med Chem Lett, 2023)
